This assay concerns the target HERG potassium channel (human ether-a-go-go related gene) (Homo sapiens, UniProt Q12809). The assay can be described thus: cell-based.

The structures appear in SMILES notation.

Sequence of HERG potassium channel (human ether-a-go-go related gene) (Q12809 whole entry): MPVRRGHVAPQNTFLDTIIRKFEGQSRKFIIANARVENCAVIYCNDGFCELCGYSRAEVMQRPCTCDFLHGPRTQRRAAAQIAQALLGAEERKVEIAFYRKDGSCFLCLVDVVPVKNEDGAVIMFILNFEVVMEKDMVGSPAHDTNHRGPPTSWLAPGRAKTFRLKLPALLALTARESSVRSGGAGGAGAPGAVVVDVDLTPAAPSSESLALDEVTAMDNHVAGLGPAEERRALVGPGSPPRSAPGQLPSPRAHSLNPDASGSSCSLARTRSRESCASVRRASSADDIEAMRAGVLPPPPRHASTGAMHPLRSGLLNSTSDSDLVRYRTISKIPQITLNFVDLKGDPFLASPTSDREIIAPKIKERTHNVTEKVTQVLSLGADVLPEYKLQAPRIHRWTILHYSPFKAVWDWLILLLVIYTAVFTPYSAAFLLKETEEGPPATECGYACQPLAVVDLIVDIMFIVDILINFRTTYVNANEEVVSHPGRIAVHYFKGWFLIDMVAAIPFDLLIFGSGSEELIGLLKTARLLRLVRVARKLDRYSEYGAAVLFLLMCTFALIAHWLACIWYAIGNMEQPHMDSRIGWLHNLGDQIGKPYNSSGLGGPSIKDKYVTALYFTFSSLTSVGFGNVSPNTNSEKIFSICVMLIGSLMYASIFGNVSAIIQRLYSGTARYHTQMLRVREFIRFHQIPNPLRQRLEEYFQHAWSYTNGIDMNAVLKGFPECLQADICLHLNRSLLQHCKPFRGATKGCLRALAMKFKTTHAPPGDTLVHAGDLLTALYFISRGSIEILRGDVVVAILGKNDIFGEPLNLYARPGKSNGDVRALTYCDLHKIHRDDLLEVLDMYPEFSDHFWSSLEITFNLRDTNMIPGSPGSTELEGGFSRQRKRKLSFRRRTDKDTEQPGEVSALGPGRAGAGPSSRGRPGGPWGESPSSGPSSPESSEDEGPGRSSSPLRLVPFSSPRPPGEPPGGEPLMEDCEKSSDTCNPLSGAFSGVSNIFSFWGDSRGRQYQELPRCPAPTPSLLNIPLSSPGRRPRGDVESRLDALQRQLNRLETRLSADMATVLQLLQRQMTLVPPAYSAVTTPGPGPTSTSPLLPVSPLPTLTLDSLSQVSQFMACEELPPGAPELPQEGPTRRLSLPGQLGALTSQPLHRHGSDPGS

As to `CCCCCCCCCCCC[N+](C)(C)CCOc1ccccc1` [DB, domiphen bromide], the IC50 came to 9 nM.

The values above are taken from article PMC4527083 (European journal of pharmacology, 2014).
